# Test results as given in the supplement of paper PMC13380429.
# Key:
# Conditions in all cases: 72 h
# Caco-2 [1] = experiment: cell viability relative to DMSO; higher = less toxic
# Calu-3 [2] = experiment: as above
# HepG2 [3] = experiment: as above
# U2OS [4] = experiment: as above
# Vero E6 [5] = experiment: as above
# Caco-2 [6] = experiment: relative viability EC50 (midpoint between 100% and the lowest measured viability); higher = less toxic
# Calu-3 [7] = experiment: as above
# HepG2 [8] = experiment: as above
# U2OS [9] = experiment: as above
# Vero E6 [10] = experiment: as above
# Caco-2 [11] = experiment: drug sensitivity score (DSS) for viability; higher = more toxic; extreme values may be limits of the assay
# Calu-3 [12] = experiment: as above
# HepG2 [13] = experiment: as above
# U2OS [14] = experiment: as above
# Vero E6 [15] = experiment: as above
SMILES,cell viability (Caco-2 [1]; 1 nM) [%],cell viability (Caco-2 [1]; 10 nM) [%],cell viability (Caco-2 [1]; 100 nM) [%],cell viability (Caco-2 [1]; 1000 nM) [%],cell viability (Caco-2 [1]; 10000 nM) [%],cell viability (Calu-3 [2]; 1 nM) [%],cell viability (Calu-3 [2]; 10 nM) [%],cell viability (Calu-3 [2]; 100 nM) [%],cell viability (Calu-3 [2]; 1000 nM) [%],cell viability (Calu-3 [2]; 10000 nM) [%],cell viability (HepG2 [3]; 1 nM) [%],cell viability (HepG2 [3]; 10 nM) [%],cell viability (HepG2 [3]; 100 nM) [%],cell viability (HepG2 [3]; 1000 nM) [%],cell viability (HepG2 [3]; 10000 nM) [%],cell viability (U2OS [4]; 1 nM) [%],cell viability (U2OS [4]; 10 nM) [%],cell viability (U2OS [4]; 100 nM) [%],cell viability (U2OS [4]; 1000 nM) [%],cell viability (U2OS [4]; 10000 nM) [%],cell viability (Vero E6 [5]; 1 nM) [%],cell viability (Vero E6 [5]; 10 nM) [%],cell viability (Vero E6 [5]; 100 nM) [%],cell viability (Vero E6 [5]; 1000 nM) [%],cell viability (Vero E6 [5]; 10000 nM) [%],relative viability EC50 (Caco-2 [6]) [µM],relative viability EC50 (Calu-3 [7]) [µM],relative viability EC50 (HepG2 [8]) [µM],relative viability EC50 (U2OS [9]) [µM],relative viability EC50 (Vero E6 [10]) [µM],drug sensitivity score (Caco-2 [11]),drug sensitivity score (Calu-3 [12]),drug sensitivity score (HepG2 [13]),drug sensitivity score (U2OS [14]),drug sensitivity score (Vero E6 [15])
O=C(O)C1=CCCN(CCON=C(c2ccccc2)c2ccccc2)C1 [NNC-711],102,95.6,104,96,101,108,100,102,101,98.9,93.4,100,99.1,109,101,98.7,95.5,103,101,98.5,90.4,103,101,97.4,114,> 10,> 10,> 10,> 10,> 10,0,0,0,0,0
COc1cccc(-c2cc(F)ccc2[C@H]2Cc3nc(N)nc(C)c3C(=O)N2)n1 [NVP-HSP990],110,67.8,51.1,42.2,41,108,97.1,43.5,34.4,36.2,105,104,0.7,0.2,0.5,102,94.9,19.3,2.5,3.2,101,112,47.3,27.8,26.6,0.0094,0.0427,0.0343,0.0446,0.0697,22.6,19.3,30,27.7,19.6
COc1cc(Nc2ncc(F)c(Nc3ccc4c(n3)NC(=O)C(C)(C)O4)n2)cc(OC)c1OC [R406],96.7,102,86.9,92.1,75.5,85.3,89.8,97.6,101,85.6,98.1,103,102,92.1,88.8,95.8,100,94.3,97.8,88.9,100,99,93.8,91,81.9,> 10,> 10,> 10,> 10,> 10,1.7,0.2,0.2,0,0.9
CC(C)=CC[C@@H](O)C1=CC(=O)c2c(O)ccc(O)c2C1=O [Shikonin],99.6,103,94.3,30.6,1.1,98.7,112,96.5,36.5,2,102,97.5,97.4,2.2,-0.3,96.9,100,89.5,4.8,0.2,95.8,96.3,91.2,6.1,-0.3,0.587,0.711,0.313,0.26,0.29,14.1,13,18,18.9,18.3
Cc1cc(C(=O)N2Cc3cnn(C)c3Nc3ccccc32)ccc1CNC(=O)N1CCC[C@H]1C(=S)N1CCCN(C)CC1 [TC-OT-39],99.8,92.2,98.7,106,100,98.1,84.4,105,97.9,90,100,90.3,97,104,96.8,97.7,100,106,98,101,95.3,98.6,94.4,97.5,102,> 10,> 10,> 10,> 10,> 10,0,0,0,0,0
O=C(O)CC1CC(c2ccccc2)=NO1 (stereo not given) [VGX-1027],98.2,106,99.6,96.1,104,91.7,101,91.8,93.7,103,98.1,93.8,101,104,115,101,94.8,97.1,103,103,94.1,94.7,97.6,95,102,> 10,> 10,> 10,> 10,> 10,0,0,0,0,0
COc1cc2c(Nc3ccc(Cl)c(Cl)c3F)ncnc2cc1OC[C@@H]1C[C@@H]2CN(C)C[C@@H]2C1 [XL647],92.1,92.6,95,72.1,14.9,98.8,93.2,82.4,31,0.7,102,89.7,99.7,92.9,6.7,95.9,95.9,93.7,84.2,-0.3,96.8,100,85.1,39.2,-0.4,1.39,0.431,2.55,1.94,0.612,8.4,15.3,6.3,8.2,13.6
Cc1ccc(Oc2ccccc2-c2csc(N=C3NCCCN3)n2)c(C)c1 [abafungin],104,105,100,87.5,78.3,90.4,99,104,99.3,112,105,104,104,87.8,75.8,91.6,95.2,93.6,96.7,91.2,106,99.8,105,99.4,97.7,> 10,> 10,> 10,> 10,> 10,2,0,2.3,0,0
CC(=O)Nc1c(I)cc(I)c(C(=O)O)c1I [acetriazoic-acid],91.2,92,96.3,97.8,102,98.6,95.3,95.1,99.4,97.1,96.6,92.1,89.9,95.8,107,94.2,92.4,98.7,97.2,98.2,93.2,99,93.8,98.4,102,> 10,> 10,> 10,> 10,> 10,0,0,0,0,0
COc1ccc(-c2ccc3cc(C(=O)O)ccc3c2)cc1C12CC3CC(CC(C3)C1)C2 [adapalene],95.3,99.6,97.6,99.4,93.3,98.6,101,101,101,86.2,102,96.9,109,104,112,94.5,98.2,94.6,99.4,98.4,98.1,94.6,95.4,93.3,115,> 10,> 10,> 10,> 10,> 10,0,0.1,0,0,0
C[C@]12CCC(=O)C=C1CC[C@@H]1[C@@H]2C(=O)C[C@]2(C)C(=O)CC[C@@H]12 [adrenosterone],107,96,98,95,97.5,106,92.5,100,98.1,96.4,98.6,98.8,94.5,97.7,97.5,103,95,98.2,97.4,99.1,95.3,100,99.3,97.5,97.1,> 10,> 10,> 10,> 10,> 10,0,0,0,0,0
C=CC[C@]1(O)CC[C@H]2[C@@H]3CCC4=CCCC[C@@H]4[C@H]3CC[C@@]21C [allylestrenol],107,102,112,102,88.8,98,108,116,104,106,105,104,108,105,98.3,94.6,98.1,94.8,99.4,99.5,102,91.5,106,103,97.7,> 10,> 10,> 10,> 10,> 10,0,0,0,0,0
CN(C)CCC=C1c2ccccc2CCc2ccccc21 [amitriptyline],110,77.9,104,96.5,90.8,99.6,109,110,104,90.3,107,102,99.1,93,83.5,102,98.5,100,101,92.3,102,94,86.5,113,86.3,> 10,> 10,> 10,> 10,> 10,0,0,0.8,0,0
CC1(C)S[C@@H]2[C@H](NC(=O)[C@H](N)c3ccc(O)cc3)C(=O)N2[C@H]1C(=O)O [amoxicillin],85,78.5,85.4,97,97.7,109,110,110,106,96.5,99.3,106,97.3,98.2,96.4,102,103,96.2,102,106,101,97.8,98.2,88.2,102,> 10,> 10,> 10,> 10,> 10,0,0,0,0,0
